The values that follow come from patent US20130012404A1, “CULTURE METHOD, EVALUATION METHOD AND STORAGE METHOD FOR CANCER-TISSUE-DERIVED CELL MASS OR AGGREGATED CANCER CELL MASS” (Osaka Prefectural Hospital Organization, priority 2010, published 2013).

For assay [1], the system named is cell mass derived from the cancer tissue (surgical specimens of human colon cancer, Example 2). Nature of the assay: Drug sensitivity test with 5-FU on cancer tissue-derived cell masses embedded in collagen gel. It is filed as cell-based. The conditions noted are these: 5-FU 0.01, 0.1, 1, 10 and 100 μg/ml; day 8 after culture vs day 0; FIG. 4. How it is done: Using 5-FU which is known to inhibit DNA synthesis by binding to a thymidylic acid synthetase involved in the metabolism process necessary for DNA synthesis, a drug sensitivity test on a sample of Example 2 was carried out. The test was carried out by embedding the cell masses (×10 each) derived from the cancer tissue in a collagen gel (CellMatrix type IA (Nitta Gelatin Inc.):5×DMEM (Gibco; 12100-038):buffer solution for gel reconstruction (50 mM NaOH, 260 mM NaHCO3, 200 mM HEPES)=7:2:1), and culturing in 1 cc of STEMPRO serum-free medium (Gibco) for human ES cells in an incubator under the culture conditions of 37° C. and 5% CO2. In addition, 5-FU was applied at a concentration of 0.01 μg/ml, 0.1 μg/ml, 1 μg/ml, 10 μg/ml, and 100 μg/ml, and the states of the cells on days 0 and 8 after culture were compared for evaluation. An increasing rate of the area of the cell mass derived from the cancer tissue was expressed relative to 1 of an increasing rate of the area of the cell mass in the culture without application of a drug.

Assay [2] relates to aggregated cancer cell mass. Nature of the assay: Drug sensitivity test with doxorubicin on aggregated cancer cell masses embedded in collagen gel. Type of assay: cell-based. The conditions noted are these: doxorubicin 0.1, 1 and 10 μM; day 8 after culture initiation vs day 0; FIG. 14. How it is done:
Using doxorubicin that is known to exert an antitumor effect by suppressing the biosynthesis of both DNA and RNA as a result of inhibiting the reaction of DNA polymerase, RNA polymerase, and topoisomerase II due to the insertion of doxorubicin between the base pairs of DNA of tumor cells, a drug sensitivity test was carried out by the sample of Example 12. The test was carried out by embedding the aggregated cancer cell mass (×10 each) in collagen gel (CellMatrix type IA (Nitta Gelatin):5×DMEM (Gibco; 12100-038):buffer solution for gel reconstruction (50 mM NaOH, 260 mM NaHCO3, 200 mM HEPES)=7:2:1) and carrying out culture in 1 cc of a STEMPRO human ES cell serum-free medium (Gibco) under the culture conditions of a temperature of 37° C. in 5% CO2 incubator. In addition, doxorubicin was applied at a concentration of 0.1 μM, 1 μM, and 10 μM, and the states on day 0 and on day […] were compared for evaluation. An increasing rate of the area of the aggregated cancer cell mass was relatively expressed when an increasing rate of the area of the cell mass in the culture without application of a drug was determined to be 1.

Turning to `O=c1[nH]cc(F)c(=O)[nH]1` [5-FU], the “proliferation of the cancer cell (increasing rate of the area of the cell mass relative to 1 without drug)” value in assay [1] is listed as “concentration-dependently suppressed”. As to `COc1cccc2c1C(=O)c1c(O)c3c(c(O)c1C2=O)C[C@@](O)(C(=O)CO)C[C@@H]3O[C@H]1C[C@H](N)[C@H](O)[C@H](C)O1` [doxorubicin], the “proliferation of the cancer cell (increasing rate of the area of the aggregated cancer cell mass relative to 1 without drug)” value in assay [2] was “concentration-dependently suppressed”.
